Experimental data from ChEMBL document CHEMBL5696442, “Discovery of type II inhibitors of TGFβ-activated kinase 1 (TAK1) and mitogen-activated protein kinase kinase kinase kinase 2 (MAP4K2)” (J Med Chem, 2015).
Calls of active or inactive are those of the source. No cut-off for these calls is given here.

Assays:
[1] = target: 5'-AMP-activated protein kinase catalytic subunit alpha-1 (Homo sapiens) (UniProt Q13131); assay: Inhibition of AMPKa1 ATP labeling site in human Huh-7 cell lysate at 1 uM by KiNativ Profiling analysis relative to control; format: subcellular
[2] = target: T1, Scaffold protein ILK (Homo sapiens) (UniProt Q13418); assay: Inhibition of ILK Protein Kinase Domain in human A-375 cells at 0.5 uM by KiNativ Profiling analysis relative to control; format: cell-based
T1 sequence (whole entry): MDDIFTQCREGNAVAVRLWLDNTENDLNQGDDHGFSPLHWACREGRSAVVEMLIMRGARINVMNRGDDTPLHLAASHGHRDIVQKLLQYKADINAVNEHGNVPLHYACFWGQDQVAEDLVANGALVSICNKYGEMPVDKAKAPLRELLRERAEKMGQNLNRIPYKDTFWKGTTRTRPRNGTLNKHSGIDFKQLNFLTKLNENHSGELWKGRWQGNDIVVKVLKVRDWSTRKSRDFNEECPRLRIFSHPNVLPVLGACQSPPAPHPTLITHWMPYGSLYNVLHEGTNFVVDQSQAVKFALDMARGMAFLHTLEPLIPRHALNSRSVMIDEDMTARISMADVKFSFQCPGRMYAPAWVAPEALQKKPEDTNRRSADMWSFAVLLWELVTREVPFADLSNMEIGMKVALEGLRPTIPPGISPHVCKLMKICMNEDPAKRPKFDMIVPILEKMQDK

[3] = target: T2, Serine/threonine-protein kinase Nek1 (Homo sapiens) (UniProt Q96PY6); assay: Inhibition of NEK1 (unknown origin) at 10 uM by Ambit Kinomescan binding assay
T2 sequence (whole entry): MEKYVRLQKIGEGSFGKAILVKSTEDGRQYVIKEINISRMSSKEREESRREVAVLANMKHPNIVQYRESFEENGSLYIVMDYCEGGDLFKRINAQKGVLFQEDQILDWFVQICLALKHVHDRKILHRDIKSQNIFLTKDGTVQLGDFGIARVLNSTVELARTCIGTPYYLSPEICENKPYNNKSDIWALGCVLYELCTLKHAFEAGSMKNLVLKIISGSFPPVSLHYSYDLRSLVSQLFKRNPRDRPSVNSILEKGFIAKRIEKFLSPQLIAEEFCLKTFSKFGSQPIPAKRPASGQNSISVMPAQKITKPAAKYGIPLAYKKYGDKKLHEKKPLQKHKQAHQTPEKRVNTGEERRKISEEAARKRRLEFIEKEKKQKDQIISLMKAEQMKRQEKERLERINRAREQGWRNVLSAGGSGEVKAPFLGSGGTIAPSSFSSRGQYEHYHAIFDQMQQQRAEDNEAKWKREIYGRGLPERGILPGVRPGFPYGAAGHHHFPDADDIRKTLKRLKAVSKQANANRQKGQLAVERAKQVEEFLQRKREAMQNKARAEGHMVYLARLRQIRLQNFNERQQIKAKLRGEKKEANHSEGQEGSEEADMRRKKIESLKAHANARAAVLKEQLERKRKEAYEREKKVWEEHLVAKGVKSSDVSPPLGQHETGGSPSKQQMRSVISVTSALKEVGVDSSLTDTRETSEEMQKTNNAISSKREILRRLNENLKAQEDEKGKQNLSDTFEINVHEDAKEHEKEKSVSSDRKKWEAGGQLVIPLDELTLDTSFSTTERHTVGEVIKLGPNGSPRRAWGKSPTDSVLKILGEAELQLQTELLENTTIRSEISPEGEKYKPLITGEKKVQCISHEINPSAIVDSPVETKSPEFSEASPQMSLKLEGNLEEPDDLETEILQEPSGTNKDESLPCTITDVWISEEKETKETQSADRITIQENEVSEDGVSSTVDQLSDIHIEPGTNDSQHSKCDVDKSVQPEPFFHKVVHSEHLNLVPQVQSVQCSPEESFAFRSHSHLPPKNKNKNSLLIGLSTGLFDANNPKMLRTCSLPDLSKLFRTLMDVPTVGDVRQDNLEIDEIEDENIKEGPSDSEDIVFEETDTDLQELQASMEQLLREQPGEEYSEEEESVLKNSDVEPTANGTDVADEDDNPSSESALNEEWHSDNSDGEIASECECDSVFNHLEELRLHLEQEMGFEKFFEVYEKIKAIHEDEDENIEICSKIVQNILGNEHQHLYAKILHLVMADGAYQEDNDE

[4] = target: T3, Serine/threonine-protein kinase Nek9 (Homo sapiens) (UniProt Q8TD19); assay: Inhibition of NEK9 ACT labeling site in human A-375 cells at 5 uM by KiNativ Profiling analysis relative to control; format: cell-based
T3 sequence (whole entry): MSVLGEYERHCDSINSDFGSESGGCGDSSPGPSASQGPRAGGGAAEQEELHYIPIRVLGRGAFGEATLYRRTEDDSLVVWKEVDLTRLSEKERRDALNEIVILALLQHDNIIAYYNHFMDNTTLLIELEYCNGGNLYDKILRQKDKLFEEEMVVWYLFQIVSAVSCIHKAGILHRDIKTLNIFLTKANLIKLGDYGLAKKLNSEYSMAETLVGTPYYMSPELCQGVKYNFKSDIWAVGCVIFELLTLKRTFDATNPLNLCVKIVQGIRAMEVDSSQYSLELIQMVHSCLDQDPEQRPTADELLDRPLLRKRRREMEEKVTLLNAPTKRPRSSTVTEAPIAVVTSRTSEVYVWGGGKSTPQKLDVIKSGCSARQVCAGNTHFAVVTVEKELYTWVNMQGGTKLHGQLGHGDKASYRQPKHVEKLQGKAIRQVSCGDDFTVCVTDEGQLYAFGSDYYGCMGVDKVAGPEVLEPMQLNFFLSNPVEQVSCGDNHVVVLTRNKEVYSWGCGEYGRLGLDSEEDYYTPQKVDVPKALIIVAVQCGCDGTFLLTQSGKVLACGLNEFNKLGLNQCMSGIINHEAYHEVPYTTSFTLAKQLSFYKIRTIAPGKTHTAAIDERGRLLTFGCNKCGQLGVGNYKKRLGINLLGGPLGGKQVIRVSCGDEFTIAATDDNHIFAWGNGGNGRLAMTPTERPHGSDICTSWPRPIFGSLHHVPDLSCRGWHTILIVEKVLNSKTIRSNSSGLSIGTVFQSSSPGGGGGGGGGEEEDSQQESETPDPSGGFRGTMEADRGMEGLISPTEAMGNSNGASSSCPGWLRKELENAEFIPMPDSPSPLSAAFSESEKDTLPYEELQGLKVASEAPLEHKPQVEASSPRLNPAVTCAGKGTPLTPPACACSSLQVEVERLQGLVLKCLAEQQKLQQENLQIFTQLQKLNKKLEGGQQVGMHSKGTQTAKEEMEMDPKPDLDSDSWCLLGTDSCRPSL

5'-AMP-activated protein kinase catalytic subunit alpha-1 (Homo sapiens), sequence (Q13131 whole entry, looked up, the tested form may be a part): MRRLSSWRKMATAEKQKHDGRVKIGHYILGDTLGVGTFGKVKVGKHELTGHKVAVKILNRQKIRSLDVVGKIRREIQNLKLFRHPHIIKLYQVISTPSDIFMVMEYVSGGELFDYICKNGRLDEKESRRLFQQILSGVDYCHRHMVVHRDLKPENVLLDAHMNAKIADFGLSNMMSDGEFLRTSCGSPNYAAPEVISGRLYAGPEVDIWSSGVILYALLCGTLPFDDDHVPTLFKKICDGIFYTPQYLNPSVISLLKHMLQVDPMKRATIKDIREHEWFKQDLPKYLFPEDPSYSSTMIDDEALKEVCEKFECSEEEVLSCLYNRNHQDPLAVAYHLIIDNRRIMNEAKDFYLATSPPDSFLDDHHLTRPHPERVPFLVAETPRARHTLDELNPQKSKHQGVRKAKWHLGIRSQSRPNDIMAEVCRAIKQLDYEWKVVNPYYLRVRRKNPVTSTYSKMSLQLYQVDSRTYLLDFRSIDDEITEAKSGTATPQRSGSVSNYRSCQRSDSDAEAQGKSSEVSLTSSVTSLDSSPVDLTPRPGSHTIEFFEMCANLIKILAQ

Question: `CNc1cc(Oc2cc(C(=O)Nc3cc(N4CCN(C)CC4)cc(C(F)(F)F)c3)ccc2C)ncn1` was tested. Which inhibition [1] did it give?
Answer: 11.2%

Question: What does the source list for `CCN1CCN(Cc2ccc(NC(=O)c3ccc(C)c(Oc4ccnc5[nH]ccc45)c3)cc2C(F)(F)F)CC1`?
Answer: inhibition [2]: 1.9%; inhibition [3]: inactive

Question: `CCN1CCN(Cc2ccc(NC(=O)c3ccc(C)c(/C=C/c4cnc5[nH]ccc5c4OC)c3)cc2C(F)(F)F)CC1` was tested. Which inhibition [4] did it give?
Answer: 14.9%
